{
  "source": "patent EP0968998A1",
  "about": "“Cosmetic compositions, ceramide analogues with anti-elastase activity and process for their preparation” (ELF ATOCHEM S.A., priority 1998, dated 2000)",
  "test_system": "stratum corneum",
  "assay": "Skin barrier improvement: transepidermal (insensible) water loss (PIE), Servomed evaporimeter, cream applied to inner forearm",
  "format": "in vivo, volontaires sains ayant une peau sèche",
  "conditions": "cream with 0,5 % (ex. 7, témoins), 1 % (ex. 4, 8), 5 % (ex. 6)",
  "from_the_text": "Les exemples qui suivent permettent d'illustrer l'invention. […] Les valeurs sont exprimées en nombre d'onde par centimètre. - Résonance magnétique nucléaire (RMN) Les spectres sont réalisés au moyen d'un appareil BRUCKER DRX 500, à 500 MHz (^1H) et 125 MHz (^13C) dans le DMSO-d6. La calibration de l'appareil est effectuée au moyen de DMSO. Les déplacements chimiques sont exprimés en ppm. […] On utilise le N-succinyl-(Ala)3-p-nitroanilide en solution dans le tétrahydrofurane et une solution d'élastase à 100 mg/ml dans un mélange de glycérol et de tampon acétate de sodium (50/50; v/v), pH5. L'activité de l'enzyme est mesurée à 37°C dans 100 mM de tampon Tris-HCI, pH8 contenant 0,01 % de Triton X-100 (volume/volume) et 0,02 % d'azide de sodium (poids/volume). Le céramide à tester, solubilisé dans le tétrahydrofurane (concentration en THF = 0,5 % en volume) est préincubé en présence de l'enzyme (0,05 mg/ml) dans le tampon pendant 5 minutes à 37°C. On ajoute le N-succinyl-(Ala)3-p-nitroanilide (concentration finale : 250 µM) et on mesure la libération de la p-nitroaniline dans une cuve en quartz par spectrophotométrie à 410 nm. La capacité inhibitrice du céramide est exprimée en pourcentage d'inhibition (% I) selon la relation : %I = (1 -(Vi)/(Vo))×100 [formula] dans laquelle Vi et Vo sont les vitesses d'apparition de la p-nitroaniline en présence et en absence d'inhibiteur respectivement. - Mesure de l'amélioration de la barrière cutanée a) mesure de la Perte Insensible en Eau (PIE) La mesure de la PIE permet de quantifier la très faible quantité d'eau qui diffuse passivement à travers le stratum corneum. Ce paramètre représente un très bon index de la fonction barrière du stratum corneum. Cette méthode est surtout utilisée pour contrôler l'efficacité de formules cosmétiques qui, contenant certains types de lipides sont capables de diminuer la PIE et, en conséquence, d'empêcher la déshydratation du stratum corneum. La sonde est laissée en contact de la peau pendant 2 minutes environ de façon à atteindre une position d'équilibre. PIE = D'(dP)/(dx)(gradient de pression de vapeur) [formula] Les valeurs sont exprimées en g/m^2/heure et permettent de calculer un delta de PIE = PIE (peau traitée) - PIE (peau témoin). L'appareil utilisé est un Evaporimètre EPI de Servomed. Les mesures sont effectuées sur deux groupes de 15 volontaires sains ayant une peau sèche, avant l'application du produit (t=0) et après l'application (t=0,5 heure, 1 heure, 3 heures et 6 heures) sur la face interne des deux avant-bras. L'analogue de céramide selon l'invention ou le céramide témoin est incorporé dans une crème ayant la composition suivante (en % en poids) :\nLa teneur en analogue de céramide dans la crème est égale à 0,5 % (exemple 7), 1 % (exemples 4 et 8) et 5 % (exemple 6), et celle des céramides témoins (a) et (b) est égale à 0,5 %. La diminution des valeurs de PIE signifie une amélioration de la qualité de la barrière cutanée qui traduit un meilleur pouvoir retentionnel de l'eau au niveau de la couche cornée et donc une meilleure hydratation. b) hydratation cutanée L'eau peut être considérée comme un dipôle électrique capable de conduire l'électricité. Le transport d'électricité dans un champ donné est proportionnel à la quantité d'eau présente dans le stratum corneum. Plus une peau est riche en eau et plus le courant électrique passe rapidement entre 2 électrodes. Il existe donc un lien entre l'hydratation du stratum corneum et les modifications des propriétés électriques. Les mesures de capacitance, liée à la constante diélectrique de la peau, sont réalisées par le Cornéomètre Courage+Khazaka CM 200, dont la sonde présente une surface de contact avec la peau de 49 mm^2; cette sonde est appliquée avec une pression constante sur la surface cutanée à mesurer, et l'indice d'hydratation directement proportionnel au taux hydrique de surface est instantané.",
  "data": [
    {"smiles": "CCCCCCCCCCCCCCCCCC(=O)NC(CC)(CO)COC(=O)CCCCCCCCCCCCCCCCC", "note": "(centres unmarked) [Exemple 4, 1-stéaroyl-2-éthyl-2-stéaroylamino-1,3-propanediol]", "values": [
      {"measurement": "Perte Insensible en Eau (PIE) M±s", "setting": "t=0,5 heure after application", "value": "3,89±0,85 g/m^2/heure"},
      {"measurement": "Perte Insensible en Eau (PIE) M±s", "setting": "t=0 heure (before application, baseline)", "value": "4,52±0,79 g/m^2/heure"},
      {"measurement": "Perte Insensible en Eau (PIE) M±s", "setting": "t=1 heure after application", "value": "2,95±1,15 g/m^2/heure"},
      {"measurement": "Perte Insensible en Eau (PIE) M±s", "setting": "t=3 heures after application", "value": "4,30±0,97 g/m^2/heure"},
      {"measurement": "Perte Insensible en Eau (PIE) M±s", "setting": "t=6 heures after application", "value": "4,00±1,24 g/m^2/heure"}
    ]}
  ]
}
